Laboratory results from US5385842A, “Anthraquinones as inhibitors of sulfide production from sulfate-reducing bacteria” (E. I. Du Pont de Nemours and Company, priority 1993, dated 1995).
Structures can show the parent of a compound that is named as a salt.

Experiments:
[1] = tested on: anaerobic bacteria; details: background art; cited from earlier work
[2] = tested on: sulfate-reducing bacteria; details: background art; cited from earlier work
[3] = tested on: E. coli, Pseudomonas, Salmonella or Sarcina; details: background art; cited from earlier work
[4] = tested on: Bacillus, Nocardia, Streptomyces, Proteus; details: background art; cited from earlier work
[5] = tested on: Desulfovibrio desulfuricans G100A; test: microbe, parasite or virus in culture; assay type: cell-based; details: for inhibition at 30 ppm / inhibition at 10 ppm: Desulfovibrio desulfuricans, G100A, read-out: % Inhib. (inhibition of sulfide production)
[6] = tested on: B. aureus, B. subtilis, B. stearothermophilus and S. aureus; details: background art; cited from earlier work
[7] = tested on: D. desulfuricans G100A; test: Effect of dithionite-reduced anthraquinones on growth of D. desulfuricans G100A; assay type: cell-based
Method: Three anthraquinones, 1,8-dihydroxy-, 1-chloro-, and 3-chloro-2-carboxy- were prepared as 1 ml of 1000 ppm solutions in acetone for the first two compounds or water for the third. These solutions were then treated with 1 mg of the strong reducing agent, sodium dithionite. 50 ul of each solution (for a final culture concentration of 5 ppm) was used immediately to treat growing cultures of D. desulfuricans G100A in BTZ-3 medium as defined in Example 1. The compounds were added to the 10 ml cultures at 15 h of growth.

[8] = tested on: D. desulfuricans G100A; test: Growth of D. desulfuricans G100A after addition of inhibitor at 12 h; assay type: cell-based
Method: Four 10 ml culture tubes of BTZ-3 medium as defined in Example 1 supplemented with sodium lactate (40 mM) and sodium sulfate (30 mM) and 0.5 ml of reducing agent were inoculated with 100 ul of a fully grown suspension of D. desulfuricans G100A. The culture was allowed to grow and the optical density at 660 nm was monitored until the cells entered into exponential growth (approx. 12-15 h, O.D. 660=0.1-0.2). At this time 100 ul of a 300 ppm solution of 1,8 dihydroxyanthraquinone, 1-chloranthraquinone or 3-chloro-2-anthraquinone carboxylic acid, respectively, was added to one of the tubes. The ethanol:water (80:20) solvent (100 μl ) was added to the fourth tube to serve as an uninhibited control.
#3 ppm inhibitor added at 12 hours

[9] = tested on: D. desulfuricans #ATCC27774; test: Respiration rate (hydrogen gas uptake) with sulfate as electron acceptor; details: Desulfovibrio desulfuricans, ATCC27774, 4 h, pH 7, read-out: Gas Uptake (as percent of control)
[10] = tested on: Desulfovibrio gigas; test: Sulfide production by resting cells of D. gigas; assay type: cell-based; details: for activity at 0.1 ppm / activity at 0.5 ppm / activity at 2 ppm / activity at 5 ppm: Desulfovibrio, 3 hours at 31° C.; for inhibition of sulfide production (in words): resting cells
Method: Experiments in this example were carried out using resting cells of Desulfovibrio gigas rather than growing cells as was the case for the autoanalyzer system employing the Desulfovibrio desulfuricans G100A strain. […] Thus the experiment examined a different organism, different test system, and a different physiological state for the phenomenon of anthraquinone inhibition of sulfide production by Desulfovibrio sp. Active compounds, as determined by the autoanalyzer, were evaluated in comparison with four additional compounds not evaluated in the autoanalyzer.
500 ml cultures of Desulfovibrio gigas were grown on standard BTZ-3 medium as previously described in Example 1 with 30 mM sodium lactate, 30 mM sodium sulfate and 30 mM sodium fumarate. The culture was harvested after 24 h of growth at 31° C. by centrifugation at 8000 rpm in a GSA Sorvall rotor for 20 minutes. The cell pellet was resuspended in 30 ml of incubation assay mixture of the following composition: 50 mM HEPES buffer pH 7 buffer, 2.5 mM sodium lactate, 2.5 mM sodium sulfate. This suspension was centrifuged again at 10,000 rpm in a Sorvall SS-34 rotor for 5 minutes. The resulting cell pellet was resuspended in 5 ml of incubation assay buffer. Cell densities were generally near 10e10 cells/mi.
The samples were assayed for production in the presence of anthraquinones. 200 ul of the cell suspension was added to 1.2 ml of incubation assay mixture in a 5 ml capacity test tube. The tube was gassed with hydrogen gas for 20 minutes then the anthraquinones were added as ethanolic solutions, the tubes were then gassed with hydrogen again for 5 minutes. The reaction mixtures were then incubated for 3 hours at 31° C. The reactions were stopped by the addition of 200 ul of 1N sodium hydroxide. After 20 minutes the alkaline mixtures were centrifuged in a table top microfuge for 4 minutes at 14,000 rpm to remove cells and cell debris. The supernatant was then assayed for sulfide using the ferric chloride-DPD reagent system as described by Siegel et al., Anal. Blochem., 11:126-132, 1965, herein incorporated by reference.

[11] = tested on: bacteria; details: background art; cited from earlier work
[12] = 0 h, before addition of 5 ppm dithionite-reduced compound at 15 h, control 0.02
[13] = 2 h, before addition of 5 ppm dithionite-reduced compound at 15 h, control 0.02
[14] = 12 h, before addition of 5 ppm dithionite-reduced compound at 15 h, control 0.08
[15] = 15 h, time of addition of 5 ppm dithionite-reduced compound, control 0.18
[16] = 17 h, 5 ppm dithionite-reduced compound added at 15 h, control 0.26
[17] = 20 h, 5 ppm dithionite-reduced compound added at 15 h, control 0.37
[18] = 25 h, 5 ppm dithionite-reduced compound added at 15 h, control 0.50
[19] = 30 h, 5 ppm dithionite-reduced compound added at 15 h, control 0.98
[20] = 45 h, 5 ppm dithionite-reduced compound added at 15 h, control 1.50
[21] = 0 h of growth, before addition of 3 ppm inhibitor at 12 h
[22] = 10 h of growth, before addition of 3 ppm inhibitor at 12 h
[23] = 12 h of growth, 3 ppm inhibitor added at 12 h
[24] = 14 h of growth, 3 ppm inhibitor added at 12 h
[25] = 18 h of growth, 3 ppm inhibitor added at 12 h
[26] = 20 h of growth, 3 ppm inhibitor added at 12 h
[27] = 24 h of growth, 3 ppm inhibitor added at 12 h
[28] = 29 h of growth, 3 ppm inhibitor added at 12 h
[29] = 34 h of growth, 3 ppm inhibitor added at 12 h
[30] = 62 h of growth, 3 ppm inhibitor added at 12 h
[31] = 92 h of growth, 3 ppm inhibitor added at 12 h

Cc1ncc([N+](=O)[O-])n1CCO [metronidazole]
effectiveness (in words) [1]: generally effective against anaerobic bacteria

N#CC(Br)(Br)C(N)=O [2,2-Dibromo-3-nitrilopropionamide]
effective / use concentration against sulfate-reducers [2]: 3-12 ppm

O=C1c2cc(O)cc(O)c2C(=O)c2c(O)ccc(O)c21 [1,4,6,8-tetrahydroxyanthraquinone]
antibacterial activity (in words) [3]: did not affect any species of E. coli, Pseudomonas, Salmonella or Sarcina
antibacterial activity (in words) [4]: inhibited 4 species of Bacillus, one strain of Nocardia, one strain (out of four tested) of Streptomyces and one of the Gram negative Proteus

[H]/N=C(\N/C(=N/[H])NCCCCCCNC(=N)NC(=N)Nc1ccc(Cl)cc1)Nc1ccc(Cl)cc1 [Chlorhexidine, reference compound]
effective / use concentration against sulfate-reducers [2]: 1-10 ppm
inhibition of sulfide production (in words) [5]: inhibits sulfide production
% inhibition of sulfide formation ([5]; Table III, Example 3): 88.7%

Nc1ccc(O)c2c1C(=O)c1ccccc1C2=O [1-Amino-4-hydroxyanthraquinone]
antibacterial activity (in words) [6]: either inactive against these strains or required concentrations in excess of 100 to 1000 ppm for inhibition
inhibition at 30 ppm [5]: 54.3%

O=C(O)c1cc2c(cc1Cl)C(=O)c1ccccc1C2=O [2-Chloroanthraquinone-3-carboxylic acid, 3-Chloro-9,10-dihydro-9,10-dioxo-2-anthracenecarboxylic acid]
Optical Density @ 660 nm [7, 12]: 0.02
Optical Density @ 660 nm [7, 13]: 0.02
Optical Density @ 660 nm [7, 14]: 0.07
Optical Density @ 660 nm [7, 15]: 0.1
Optical Density @ 660 nm [7, 16]: 0.15
Optical Density @ 660 nm [7, 17]: 0.17
Optical Density @ 660 nm [7, 18]: 0.17
Optical Density @ 660 nm [7, 19]: 0.16
Optical Density @ 660 nm [7, 20]: 0.22
optical density reading at 660 nm [8, 21]: .01
optical density reading at 660 nm [8, 22]: .10
optical density reading at 660 nm [8, 23]: .16
optical density reading at 660 nm [8, 24]: .21
optical density reading at 660 nm [8, 25]: .36
optical density reading at 660 nm [8, 26]: .38
optical density reading at 660 nm [8, 27]: .36
optical density reading at 660 nm [8, 28]: .37
optical density reading at 660 nm [8, 29]: .37
optical density reading at 660 nm [8, 30]: .34
optical density reading at 660 nm [8, 31]: .25
inhibition at 10 ppm [5]: 100%
activity at 0.6 ppm [9]: 79%
activity at 1.5 ppm [9]: 55%
activity at 3 ppm [9]: 41%

O=C1c2ccccc2C(=O)c2c(Cl)cccc21 [1-Chloroanthraquinone]
Optical Density @ 660 nm [7, 12]: 0.02
Optical Density @ 660 nm [7, 13]: 0.02
Optical Density @ 660 nm [7, 14]: 0.08
Optical Density @ 660 nm [7, 15]: 0.15
Optical Density @ 660 nm [7, 16]: 0.20
Optical Density @ 660 nm [7, 17]: 0.21
Optical Density @ 660 nm [7, 18]: 0.22
Optical Density @ 660 nm [7, 19]: 0.22
Optical Density @ 660 nm [7, 20]: 0.24
optical density reading at 660 nm [8, 21]: .01
optical density reading at 660 nm [8, 22]: .11
optical density reading at 660 nm [8, 23]: .12
optical density reading at 660 nm [8, 24]: .12
optical density reading at 660 nm [8, 25]: .27
optical density reading at 660 nm [8, 26]: .32
optical density reading at 660 nm [8, 27]: .32
optical density reading at 660 nm [8, 28]: .30
optical density reading at 660 nm [8, 29]: .32
optical density reading at 660 nm [8, 30]: .26
optical density reading at 660 nm [8, 31]: .23
activity at 0.1 ppm [10]: 81%
activity at 0.5 ppm [10]: 26%
activity at 2 ppm [10]: 1.6%
activity at 5 ppm [10]: 1.3%
inhibition of sulfide production (in words) [10]: inhibitory properties
inhibition at 30 ppm [5]: 20.8%
activity at 0.6 ppm [9]: 74%
activity at 1.5 ppm [9]: 50%
activity at 3 ppm [9]: 38%

O=C1c2ccccc2C(=O)c2cc(Br)ccc21 [2-bromoanthraquinone, 2-Bromoanthraquinone]
activity at 0.1 ppm [10]: 99%
activity at 0.5 ppm [10]: 33%
activity at 2 ppm [10]: 0.6%
activity at 5 ppm [10]: 0.6%
inhibition of sulfide production (in words) [10]: inhibitory effect

O=C1c2ccccc2C(=O)c2c(F)cccc21 [1-fluoroanthraquinone, 1-Fluoroanthraquinone]
activity at 0.1 ppm [10]: 105%
activity at 0.5 ppm [10]: 23%
activity at 2 ppm [10]: 0.9%
activity at 5 ppm [10]: 0.9%
inhibition of sulfide production (in words) [10]: inhibitory effect

O=C1c2ccccc2C(=O)c2c1ccc(O)c2O [1,2-Dihydroxyanthraquinone]
antibacterial activity (in words) [6]: either inactive against these strains or required concentrations in excess of 100 to 1000 ppm for inhibition
inhibition at 10 ppm [5]: 68.9%

O=C(O)c1cc(O)c2c(c1)C(=O)c1cccc(O)c1C2=O [Rhein, 9,10-Dihydro-4,5-dihydroxy-9,10-dioxo-2-anthracenecarboxylic acid]
antibacterial activity (in words) [11]: active component of leaf extracts of Cassia sp.
inhibition at 30 ppm [5]: 48.6%

molybdate
effective / use concentration against sulfate-reducers [2]: 1000-4000 ppm

N#Cc1cccc2c1C(=O)c1ccccc1C2=O [1-cyanoanthraquinone, 1-Cyanoanthraquinone]
activity at 0.1 ppm [10]: 118%
activity at 0.5 ppm [10]: 20%
activity at 2 ppm [10]: 6.7%
activity at 5 ppm [10]: 6.8%
inhibition of sulfide production (in words) [10]: inhibitory effect

O=C1c2ccccc2C(=O)c2cc(C(F)(F)F)ccc21 [2-trifluoromethylanthraquinone, 2-Trifluoromethylanthraquinone]
activity at 0.1 ppm [10]: 99%
activity at 0.5 ppm [10]: 17%
activity at 2 ppm [10]: 1.7%
activity at 5 ppm [10]: 1.5%
inhibition of sulfide production (in words) [10]: inhibitory effect

Cc1ccc(Nc2ccc(Nc3ccc(C)cc3S(=O)(=O)O)c3c2C(=O)c2c(O)ccc(O)c2C3=O)c(S(=O)(=O)O)c1 [Acid green 41, 2,2'-[(9,10-Dihydro-5,8-dihydroxy-9,10-dioxo-1,4-anthracendiyl)diimino]bis[5-methylbenzenesulfonic acid], di Na salt]
inhibition at 10 ppm [5]: 17.8%

O=C1c2ccccc2C(=O)c2c1cc(O)c(O)c2O [Anthragallol, 1,2,3-trihydroxyanthraquinone]
inhibition at 30 ppm [5]: 2.6%

Oc1cccc2cc3cccc(O)c3c(O)c12 [1,8-Dihydroxyanthranol, 1,8-Dihydroxy-9-anthranol]
inhibition at 30 ppm [5]: 88.3%
